Reference: patent US20250101023A1, “HETEROARYL DERIVATIVE AND USES THEREOF” (IUCF-HYU (INDUSTRY-UNIVERSITY COOPERATION FOUNDATION …, priority 2022, published 2025)

Legend:
PDGFRb = PDGFRb (Homo sapiens (Human), UniProt P09619); assay: Kinome-wide profiling; type: biochemical; conditions: read-out: % Residual Activity (mean)
STK16 = STK16 (Homo sapiens (Human), UniProt O75716); assay: Kinome-wide profiling; type: biochemical; conditions: read-out: % Residual Activity (mean)
KDR/VEGFR2 = KDR/VEGFR2 (Homo sapiens (Human), UniProt P35968); assay: Kinome-wide profiling; type: biochemical; conditions: read-out: % Residual Activity (mean)
CDK1/cyclin E = CDK1/cyclin E (Homo sapiens (Human), UniProt P06493); assay: Kinome-wide profiling; type: biochemical; conditions: read-out: % Residual Activity (mean)
FGFR1 = FGFR1 (Homo sapiens (Human), UniProt P11362); assay: Kinome-wide profiling; type: biochemical; conditions: read-out: % Residual Activity (mean)
NLK = NLK (Homo sapiens (Human), UniProt Q9UBE8); assay: Kinome-wide profiling; type: biochemical; conditions: read-out: % Residual Activity (mean)
FAK/PTK2 = FAK/PTK2 (Homo sapiens (Human), UniProt Q05397); assay: Kinome-wide profiling; type: biochemical; conditions: read-out: % Residual Activity (mean)
p70S6Kb/RPS6KB2 = p70S6Kb/RPS6KB2 (Homo sapiens (Human), UniProt Q9UBS0); assay: Kinome-wide profiling; type: biochemical; conditions: read-out: % Residual Activity (mean)
CDK9/cyclin T2 = CDK9/cyclin T2 (Homo sapiens (Human), UniProt P50750); assay: Kinome-wide profiling; type: biochemical; conditions: read-out: % Residual Activity (mean)
EPHA7 = EPHA7 (Homo sapiens (Human), UniProt Q15375); assay: Kinome-wide profiling; type: biochemical; conditions: read-out: % Residual Activity (mean)
CDK6/cyclin D2 = CDK6/cyclin D2 (Homo sapiens (Human), UniProt Q00534); assay: Kinome-wide profiling; type: biochemical; conditions: read-out: % Residual Activity (mean)
CK1g3 = CK1g3 (Homo sapiens (Human), UniProt Q9Y6M4); assay: Kinome-wide profiling; type: biochemical; conditions: read-out: % Residual Activity (mean)
DRAK1/STK17A = DRAK1/STK17A (Homo sapiens (Human), UniProt Q9UEE5); assay: Kinome-wide profiling; type: biochemical; conditions: read-out: % Residual Activity (mean)
PKN2/PRK2 = PKN2/PRK2 (Homo sapiens (Human), UniProt Q16513); assay: Kinome-wide profiling; type: biochemical; conditions: read-out: % Residual Activity (mean)
RET = RET (Homo sapiens (Human), UniProt P07949); assay: Kinome-wide profiling; type: biochemical; conditions: read-out: % Residual Activity (mean)
FMS = FMS (Homo sapiens (Human), UniProt P07333); assay: Kinome-wide profiling; type: biochemical; conditions: read-out: % Residual Activity (mean)
HPK1/MAP4K1 = HPK1/MAP4K1 (Homo sapiens (Human), UniProt Q92918); assay: Kinome-wide profiling; type: biochemical; conditions: read-out: % Residual Activity (mean)
GRK2 = GRK2 (Homo sapiens (Human), UniProt P25098); assay: Kinome-wide profiling; type: biochemical; conditions: read-out: % Residual Activity (mean)
MSSK1/STK23 = MSSK1/STK23 (Homo sapiens (Human), UniProt Q9UPE1); assay: Kinome-wide profiling; type: biochemical; conditions: read-out: % Residual Activity (mean)
SK-Br3 xenograft = SK-Br3 xenograft model, anticancer efficacy; type: in vivo, mouse; conditions: 10 mg/kg and 20 mg/kg, i.p. twice a week
Experimental: A mouse efficacy experiment was conducted after obtaining approval from the Laboratory Animal Ethics Committee of GenNBio (Review No.: GN-IACUC-Research 22-02-07). SK-Br3 and HCC-1954 cells (1×10^6 cells each) mixed with Matrigel (BD Biosciences) were […] injected into 5-week-old female Balb/c nude mice (Orient Bio, Seongnam, Republic of Korea). After tumors reached a size of about 100 mm^3, the compound, trastuzumab (20 mg/kg), and the like were intraperitoneally injected into mice (n=8 per group)(vehicle: 8% DMSO, 4% Tween-80, 88% PBS). The tumor size was measured twice weekly for about 4 weeks and calculated as follows. Volume (mm^3)=(a×b^2)/2; “a”, maximum diameter; “b”, vertical diameter

[1] = Liver microsomal metabolic stability; type: in vitro ADME
Experimental: 5 derivatives were evaluated for in vitro metabolic stability in liver microsomes from three different species (human, dog, mouse) and for inhibitory activity against 5 representative cytochrome P450 enzymes (CYPs)(Table 3). In terms of liver microsomal stability, the 2′-pyridyl group is more suitable than the α-methyl-4′-pyridyl group as the terminal aromatic group at position 6, and the aminopyrimidyl group is better than the aminopyridyl group as a substituent at position 2.

WNK1 = WNK1 (Homo sapiens (Human), UniProt Q9H4A3); assay: Kinome-wide profiling; type: biochemical; conditions: read-out: % Residual Activity (mean)
CAMK1b = CAMK1b (Homo sapiens (Human), UniProt Q6P2M8); assay: Kinome-wide profiling; type: biochemical; conditions: read-out: % Residual Activity (mean)
ERK7/MAPK15 = ERK7/MAPK15 (Homo sapiens (Human), UniProt Q8TD08); assay: Kinome-wide profiling; type: biochemical; conditions: read-out: % Residual Activity (mean)
MEKK2 = MEKK2 (Homo sapiens (Human), UniProt Q9Y2U5); assay: Kinome-wide profiling; type: biochemical; conditions: read-out: % Residual Activity (mean)
RIPK5 = RIPK5 (Homo sapiens (Human), UniProt Q6XUX3); assay: Kinome-wide profiling; type: biochemical; conditions: read-out: % Residual Activity (mean)
TIE2/TEK = TIE2/TEK (Homo sapiens (Human), UniProt Q02763); assay: Kinome-wide profiling; type: biochemical; conditions: read-out: % Residual Activity (mean)
GLK/MAP4K3 = GLK/MAP4K3 (Homo sapiens (Human), UniProt Q8IVH8); assay: Kinome-wide profiling; type: biochemical; conditions: read-out: % Residual Activity (mean)
LYN B = LYN B (Homo sapiens (Human), UniProt P07948); assay: Kinome-wide profiling; type: biochemical; conditions: read-out: % Residual Activity (mean)
CDK3/cyclin E2 = CDK3/cyclin E2 (Homo sapiens (Human), UniProt Q00526); assay: Kinome-wide profiling; type: biochemical; conditions: read-out: % Residual Activity (mean)
P38a/MAPK14 = P38a/MAPK14 (Homo sapiens (Human), UniProt Q16539); assay: Kinome-wide profiling; type: biochemical; conditions: read-out: % Residual Activity (mean)
CDK5/p35 = CDK5/p35 (Homo sapiens (Human), UniProt Q00535); assay: Kinome-wide profiling; type: biochemical; conditions: read-out: % Residual Activity (mean)

Chain of STK16 (O75716 whole entry): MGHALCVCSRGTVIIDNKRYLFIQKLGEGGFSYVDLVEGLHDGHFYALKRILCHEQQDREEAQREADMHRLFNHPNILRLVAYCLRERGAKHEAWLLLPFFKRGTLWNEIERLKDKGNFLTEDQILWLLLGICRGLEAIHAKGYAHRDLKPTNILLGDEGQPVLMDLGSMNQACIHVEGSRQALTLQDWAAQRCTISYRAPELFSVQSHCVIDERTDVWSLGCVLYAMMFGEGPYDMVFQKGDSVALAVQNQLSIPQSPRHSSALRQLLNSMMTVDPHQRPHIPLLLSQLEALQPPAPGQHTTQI
Chain of WNK1 (Q9H4A3 whole entry): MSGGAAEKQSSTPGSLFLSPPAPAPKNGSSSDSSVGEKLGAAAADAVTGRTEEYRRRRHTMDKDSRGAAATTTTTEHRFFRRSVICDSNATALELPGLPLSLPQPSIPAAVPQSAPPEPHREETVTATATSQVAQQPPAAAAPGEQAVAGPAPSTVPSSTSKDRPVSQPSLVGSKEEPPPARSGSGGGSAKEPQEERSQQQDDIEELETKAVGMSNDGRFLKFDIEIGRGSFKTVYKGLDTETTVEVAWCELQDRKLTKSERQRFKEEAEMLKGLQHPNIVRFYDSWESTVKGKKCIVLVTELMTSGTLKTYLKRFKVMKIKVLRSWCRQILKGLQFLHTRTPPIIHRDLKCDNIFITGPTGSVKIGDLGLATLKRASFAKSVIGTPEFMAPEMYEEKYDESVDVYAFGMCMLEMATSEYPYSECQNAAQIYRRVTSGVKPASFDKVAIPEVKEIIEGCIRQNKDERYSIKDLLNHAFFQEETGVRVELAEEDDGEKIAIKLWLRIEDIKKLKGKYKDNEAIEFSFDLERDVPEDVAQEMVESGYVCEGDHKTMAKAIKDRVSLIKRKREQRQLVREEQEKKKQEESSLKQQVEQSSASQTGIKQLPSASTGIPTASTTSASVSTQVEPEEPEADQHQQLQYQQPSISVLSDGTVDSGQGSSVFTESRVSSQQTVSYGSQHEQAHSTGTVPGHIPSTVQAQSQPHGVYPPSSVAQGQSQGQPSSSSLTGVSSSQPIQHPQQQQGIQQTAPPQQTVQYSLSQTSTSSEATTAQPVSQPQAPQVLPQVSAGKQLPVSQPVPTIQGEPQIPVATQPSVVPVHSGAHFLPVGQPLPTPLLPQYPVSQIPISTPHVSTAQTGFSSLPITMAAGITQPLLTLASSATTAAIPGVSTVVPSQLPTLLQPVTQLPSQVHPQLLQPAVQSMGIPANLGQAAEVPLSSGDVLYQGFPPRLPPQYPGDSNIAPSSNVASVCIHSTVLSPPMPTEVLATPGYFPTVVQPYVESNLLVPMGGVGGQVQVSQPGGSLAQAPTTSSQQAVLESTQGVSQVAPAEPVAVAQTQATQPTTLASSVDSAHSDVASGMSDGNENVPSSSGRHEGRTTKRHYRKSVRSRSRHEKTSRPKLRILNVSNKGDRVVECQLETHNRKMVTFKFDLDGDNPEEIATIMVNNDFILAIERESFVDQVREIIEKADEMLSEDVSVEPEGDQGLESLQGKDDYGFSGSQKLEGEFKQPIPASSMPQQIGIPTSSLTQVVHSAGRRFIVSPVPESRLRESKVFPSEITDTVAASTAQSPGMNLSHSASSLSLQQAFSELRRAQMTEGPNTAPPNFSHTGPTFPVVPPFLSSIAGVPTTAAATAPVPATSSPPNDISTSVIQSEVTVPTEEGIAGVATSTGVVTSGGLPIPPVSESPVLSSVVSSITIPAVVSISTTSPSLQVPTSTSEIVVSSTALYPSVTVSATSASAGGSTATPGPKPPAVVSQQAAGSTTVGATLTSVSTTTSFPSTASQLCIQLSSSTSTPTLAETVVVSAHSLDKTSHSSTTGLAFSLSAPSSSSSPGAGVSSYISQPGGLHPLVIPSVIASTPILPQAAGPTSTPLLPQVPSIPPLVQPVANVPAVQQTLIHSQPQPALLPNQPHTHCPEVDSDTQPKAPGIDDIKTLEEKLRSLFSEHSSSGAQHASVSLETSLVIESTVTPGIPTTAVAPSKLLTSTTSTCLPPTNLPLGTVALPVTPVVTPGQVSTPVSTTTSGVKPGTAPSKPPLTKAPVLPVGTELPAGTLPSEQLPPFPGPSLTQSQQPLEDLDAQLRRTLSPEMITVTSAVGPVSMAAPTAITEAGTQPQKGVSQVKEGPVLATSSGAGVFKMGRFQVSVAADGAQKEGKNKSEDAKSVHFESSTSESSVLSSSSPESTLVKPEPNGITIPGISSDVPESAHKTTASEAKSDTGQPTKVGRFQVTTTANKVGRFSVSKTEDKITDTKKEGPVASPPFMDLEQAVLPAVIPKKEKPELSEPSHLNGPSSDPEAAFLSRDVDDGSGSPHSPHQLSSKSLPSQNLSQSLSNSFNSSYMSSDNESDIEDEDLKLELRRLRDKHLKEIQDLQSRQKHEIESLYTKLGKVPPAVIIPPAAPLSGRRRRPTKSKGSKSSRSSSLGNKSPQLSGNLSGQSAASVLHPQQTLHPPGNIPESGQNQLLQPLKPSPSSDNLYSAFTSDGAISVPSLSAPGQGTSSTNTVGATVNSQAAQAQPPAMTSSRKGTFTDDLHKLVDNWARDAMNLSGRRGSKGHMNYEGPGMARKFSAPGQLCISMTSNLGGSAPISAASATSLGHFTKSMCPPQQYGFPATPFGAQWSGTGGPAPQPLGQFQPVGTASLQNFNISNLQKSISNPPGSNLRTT
Chain of EPHA7 (Q15375 28-998): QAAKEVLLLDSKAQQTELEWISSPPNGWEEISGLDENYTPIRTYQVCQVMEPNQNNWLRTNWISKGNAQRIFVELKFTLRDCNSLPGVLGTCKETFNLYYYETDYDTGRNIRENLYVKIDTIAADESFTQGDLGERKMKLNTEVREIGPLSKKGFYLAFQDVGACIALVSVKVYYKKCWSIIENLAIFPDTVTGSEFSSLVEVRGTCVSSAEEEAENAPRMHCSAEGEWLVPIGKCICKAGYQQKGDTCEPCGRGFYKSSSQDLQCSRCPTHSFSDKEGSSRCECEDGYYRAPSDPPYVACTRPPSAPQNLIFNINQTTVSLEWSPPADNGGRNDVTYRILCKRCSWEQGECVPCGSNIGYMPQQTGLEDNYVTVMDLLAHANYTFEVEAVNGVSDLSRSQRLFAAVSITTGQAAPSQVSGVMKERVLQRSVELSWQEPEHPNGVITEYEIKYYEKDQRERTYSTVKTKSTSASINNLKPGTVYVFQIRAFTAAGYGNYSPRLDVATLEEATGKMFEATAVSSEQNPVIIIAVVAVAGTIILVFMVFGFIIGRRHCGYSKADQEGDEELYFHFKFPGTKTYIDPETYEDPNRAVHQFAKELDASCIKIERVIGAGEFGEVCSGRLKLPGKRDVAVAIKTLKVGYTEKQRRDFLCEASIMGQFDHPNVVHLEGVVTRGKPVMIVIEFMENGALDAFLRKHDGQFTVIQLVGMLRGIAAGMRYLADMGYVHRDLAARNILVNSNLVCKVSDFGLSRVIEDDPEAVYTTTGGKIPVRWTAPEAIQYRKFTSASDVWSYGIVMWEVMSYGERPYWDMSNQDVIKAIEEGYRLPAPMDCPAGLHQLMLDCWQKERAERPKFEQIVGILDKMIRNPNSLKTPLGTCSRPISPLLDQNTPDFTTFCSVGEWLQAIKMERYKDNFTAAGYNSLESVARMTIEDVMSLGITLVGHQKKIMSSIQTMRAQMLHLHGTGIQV
Chain of FMS (P07333 20-972): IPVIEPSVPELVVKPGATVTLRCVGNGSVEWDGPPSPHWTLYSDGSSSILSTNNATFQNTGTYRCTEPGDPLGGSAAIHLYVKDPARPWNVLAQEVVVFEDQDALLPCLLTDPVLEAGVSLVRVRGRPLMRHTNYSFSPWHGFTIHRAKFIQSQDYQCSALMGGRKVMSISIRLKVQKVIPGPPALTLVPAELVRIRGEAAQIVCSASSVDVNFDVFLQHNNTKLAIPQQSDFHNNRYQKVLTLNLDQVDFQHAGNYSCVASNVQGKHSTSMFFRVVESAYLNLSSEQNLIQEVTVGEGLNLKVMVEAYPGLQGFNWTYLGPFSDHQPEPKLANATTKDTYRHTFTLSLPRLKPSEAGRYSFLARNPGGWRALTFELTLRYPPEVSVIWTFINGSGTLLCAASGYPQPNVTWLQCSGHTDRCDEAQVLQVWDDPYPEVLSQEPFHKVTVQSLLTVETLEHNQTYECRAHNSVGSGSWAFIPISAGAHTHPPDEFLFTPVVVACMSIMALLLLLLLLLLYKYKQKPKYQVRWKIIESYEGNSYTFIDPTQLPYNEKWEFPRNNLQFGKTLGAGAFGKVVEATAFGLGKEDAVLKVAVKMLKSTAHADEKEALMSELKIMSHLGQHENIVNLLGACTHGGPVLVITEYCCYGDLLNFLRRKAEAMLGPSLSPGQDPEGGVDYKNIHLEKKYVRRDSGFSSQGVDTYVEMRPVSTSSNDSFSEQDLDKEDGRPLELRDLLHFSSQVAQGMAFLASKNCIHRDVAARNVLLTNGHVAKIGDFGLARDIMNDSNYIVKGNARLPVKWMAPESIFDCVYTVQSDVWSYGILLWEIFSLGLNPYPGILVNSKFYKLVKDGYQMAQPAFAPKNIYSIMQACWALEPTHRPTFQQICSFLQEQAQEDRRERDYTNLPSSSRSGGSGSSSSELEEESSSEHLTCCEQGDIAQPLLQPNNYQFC
Chain of CAMK1b (Q6P2M8 whole entry): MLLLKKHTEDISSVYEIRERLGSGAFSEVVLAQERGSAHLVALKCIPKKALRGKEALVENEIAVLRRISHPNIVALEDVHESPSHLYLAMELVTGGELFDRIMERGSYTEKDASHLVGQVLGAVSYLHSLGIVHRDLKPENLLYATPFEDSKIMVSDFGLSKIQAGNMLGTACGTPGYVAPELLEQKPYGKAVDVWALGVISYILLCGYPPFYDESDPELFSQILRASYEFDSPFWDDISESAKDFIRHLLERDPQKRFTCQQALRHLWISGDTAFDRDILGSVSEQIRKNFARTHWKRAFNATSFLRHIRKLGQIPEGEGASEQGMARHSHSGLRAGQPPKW

CCn1cnc2c(NCc3ccc(-c4ccccn4)nc3)nc(-c3ccc(N)nc3)nc21 [Example 53, N-([2,2′-bipyridin]-5-ylmethyl)-2-(6-aminopyridin-3-yl)-9-ethyl-9H-purin-6-amine]
remaining activity at 10 µM (PDGFRb): 34.7%
remaining activity at 10 µM (STK16): 35.9%
remaining activity at 10 µM (KDR/VEGFR2): 88.6%
remaining activity at 10 µM (CDK1/cyclin E): 7.49%
remaining activity at 10 µM (FGFR1): 28.8%
remaining activity at 10 µM (NLK): 24.8%
remaining activity at 10 µM (FAK/PTK2): 52.5%
remaining activity at 10 µM (p70S6Kb/RPS6KB2): 92.2%
remaining activity at 10 µM (CDK9/cyclin T2): 1.95%
remaining activity at 10 µM (EPHA7): 31.3%
remaining activity at 10 µM (CDK6/cyclin D2): 51.5%
remaining activity at 10 µM (CK1g3): 24.4%
remaining activity at 10 µM (DRAK1/STK17A): 79.3%
remaining activity at 10 µM (PKN2/PRK2): 85.8%
remaining activity at 10 µM (RET): 79.5%
remaining activity at 10 µM (FMS): 35.4%
remaining activity at 10 µM (HPK1/MAP4K1): 30.2%
remaining activity at 10 µM (GRK2): 99.1%
remaining activity at 10 µM (MSSK1/STK23): 82.8%
anticancer efficacy (SK-Br3 xenograft): anticancer efficacy in a dose-dependent manner
Liver microsomal metabolic stability (% remaining amount) Dog ([1]; dog liver microsomes): 46.2%
Liver microsomal metabolic stability (% remaining amount) Human ([1]; human liver microsomes): 64.8%
Liver microsomal metabolic stability (% remaining amount) Mouse ([1]; mouse liver microsomes): 49.9%
remaining activity at 10 µM (WNK1): 82.5%
remaining activity at 10 µM (CAMK1b): 66.8%
remaining activity at 10 µM (ERK7/MAPK15): 13.5%
remaining activity at 10 µM (MEKK2): 90%
remaining activity at 10 µM (RIPK5): 67.8%
remaining activity at 10 µM (TIE2/TEK): 34.8%
remaining activity at 10 µM (GLK/MAP4K3): 49.6%
remaining activity at 10 µM (LYN B): 54.4%
remaining activity at 10 µM (CDK3/cyclin E2): 2.63%
remaining activity at 10 µM (P38a/MAPK14): 84.2%
remaining activity at 10 µM (CDK5/p35): 0.67%
